Assay results as given in patent US20250002476A1, “AZOLE COMPOUNDS FOR CONTROLLING INVERTEBRATE PESTS” (FMC Corporation, priority 2021, published 2025).

What was measured:
Type in all cases: in vivo
[1] = tested on: Neotropical Brown Stink Bug (Euschistus heros (Fab)); test: Test H: control of Neotropical Brown Stink Bug on sprayed green bean pieces; details: sprayed at 250 ppm; 3rd instar nymphs; 5 days
Experimental: (§1) Test compounds were formulated using a solution containing 10% acetone, 90% water and 300 ppm Activator 90@ non-ionic surfactant (Loveland Products, Loveland, Colorado, USA). The formulated compounds were applied in 1 mL of liquid through an atomized nozzle positioned 1.27 cm (0.5 inches) above the top of each test unit. Test compounds were sprayed at the rates indicated, and each test was replicated three times.
For evaluating control of Neotropical Brown Stink Bug (Euschistus heros (Fab)) through contact and/or systemic means, the test unit consisted of a petri dish with two, ˜2 cm pieces of green bean inside.
Test compounds were formulated and sprayed at 250, 50 and 10 ppm. After spraying of the formulated test compound, the test units were allowed to dry for 1 h before they were post-infested with 10 3rd instar nymphs. A fine mesh screen was secured to the petri dish, the test units were held for 5 days in a growth chamber at 28° C. and 65% relative humidity. Each test unit was then visually assessed for insect mortality after five days.

[2] = tested on: cotton melon aphid (Aphis gossypii (Glover)); test: Test E: control of cotton melon aphid on sprayed okra plant; details: 144 h, pre-infested, 6 days; for mortality at 50 ppm: sprayed at 50 ppm; for mortality at 2 ppm: sprayed at 2 ppm; for mortality at 250 ppm: sprayed at 250 ppm
Experimental: as §1
For evaluating control of cotton melon aphid (Aphis gossypii (Glover)) through contact and/or systemic means, the test unit consisted of a small open container with a 5-day-old okra plant inside. This was pre-infested with 30-40 insects on a piece of leaf according to the cut-leaf method, and the soil of the test unit was covered with a layer of sand.
Test compounds were formulated and sprayed at 250, 50, 10 and 2 ppm. After spraying, the test units were maintained in a growth chamber for 6 days at 19° C. and 70% relative humidity. Each test unit was then visually assessed for insect mortality.

[3] = tested on: silverleaf whitefly (Bemisia argentifolii (Bellows and Perring)); test: Test F: control of silverleaf whitefly on sprayed soybean plant; details: 288 h, pre-infested (oviposition), 12 days; for mortality at 250 ppm: sprayed at 250 ppm; for mortality at 50 ppm: sprayed at 50 ppm
Experimental: as §1
For evaluating control of silverleaf whitefly (Bemisia argentifolii (Bellows and Perring)) through contact and/or systemic means, each test unit consisted of a small open container with a 5-7 day old soybean plant inside. This was pre-infested by placing test units into cages containing adult whiteflies so that oviposition on the leaves could occur. The adults were removed from the plants with an air-blast nozzle, and the test units were capped. The test units were then stored 2 to 3 days before spraying.
Test compounds were formulated and sprayed at 250 and 50 ppm. After spraying, the test units were maintained in a growth chamber for 12 days at 23° C. and 70% relative humidity. Each test unit was then visually assessed for insect mortality.

[4] = tested on: Green Peach Aphid (Myzus persicae (Sulzer)); test: Test D: control of Green Peach Aphid on sprayed radish plant; details: 144 h, pre-infested, 6 days; for mortality at 250 ppm: sprayed at 250 ppm; for mortality at 50 ppm: sprayed at 50 ppm
Experimental: as §1
For evaluating control of Green Peach Aphid (Myzus persicae (Sulzer)) through contact and/or systemic means, the test unit consisted of a small open container with a 12-15-day-old radish plant inside. Prior to compound application, each test unit was pre-infested by placing on a leaf of the test plant 30-40 aphids on a piece of leaf excised from a culture plant (cut-leaf method). The aphids moved onto the test plant as the leaf piece desiccated. After pre-infestation, the soil of the test unit was covered with a layer of sand.
Test compounds were formulated and sprayed at 250 and 50 ppm. After spraying of the formulated test compound, each test unit was allowed to dry for 1 hour and then a black, screened cap was placed on top. The test units were held for 6 days in a growth chamber at 19-21° C. and 50-70% relative humidity. Each test unit was then visually assessed for insect mortality.

[5] = tested on: Corn Planthopper (Peregrinus maidis (Ashmead)); test: Test B: control of Corn Planthopper on sprayed corn plant; details: 144 h, nymphs, 6 days; for mortality at 10 ppm: sprayed at 10 ppm; for mortality at 50 ppm: sprayed at 50 ppm; for mortality at 250 ppm: sprayed at 250 ppm
Experimental: as §1
For evaluating control of Corn Planthopper (Peregrinus maidis (Ashmead)) through contact and/or systemic means, the test unit consisted of a small open container with a 3-4-day-old corn (maize) plant inside. White sand was added to the top of the soil prior to application of the test compound.
Test compounds were formulated and sprayed at 250, 50 and 10 ppm. After spraying of the formulated test compound, the test units were allowed to dry for 1 h before they were post-infested with ˜15-20 nymphs (18-to-21-day-old). A black, screened cap was placed on the top of each test unit, and the test units were held for 6 days in a growth chamber at 22-24° C. and 50-70% relative humidity. Each test unit was then visually assessed for insect mortality.

[6] = tested on: Potato Leafhopper (Empoasca fabae (Harris)); test: Test C: control of Potato Leafhopper on sprayed bean plant; details: 144 h, adults, 6 days; for mortality at 250 ppm: sprayed at 250 ppm
Experimental: as §1
For evaluating control of Potato Leafhopper (Empoasca fabae (Harris)) through contact and/or systemic means, the test unit consisted of a small open container with a 5-6-day-old bean plant inside. White sand was added to the top of the soil, and one of the primary leaves was excised prior to application of the test compound.
Test compounds were formulated and sprayed at 250 and 50 ppm. After spraying of the formulated test compound, the test units were allowed to dry for 1 hour before they were post-infested with 5 potato leafhoppers (18-to-21-day-old adults). A black, screened cap was placed on the top of the test unit, and the test units were held for 6 days in a growth chamber at 20° C. and 70% relative humidity. Each test unit was then visually assessed for insect mortality.

Row | Compound | mortality at 50 ppm [2] [%] | mortality at 250 ppm [3] [%] | mortality at 250 ppm [4] [%] | mortality at 50 ppm [5] [%] | mortality at 250 ppm [5] [%] | other results
1 | CCC#CCn1cc(-c2ccc(C)cc2)nn1 [Compound 18] |  |  |  |  |  | mortality [1]: at least 50%
2 | CCC#CCn1nnc(-c2ccc(F)cc2)n1 [Compound 41, 5-(4-fluorophenyl)-2-(2-pentyn-1-yl)-2H-tetrazole] | ≥ 80 | ≥ 50 | ≥ 80 |  |  | mortality at 10 ppm [5]: ≥ 80%
3 | CCC#CCn1nnc(-c2cc(F)cc(F)c2)n1 [Compound 65, 5-(3,5-difluorophenyl)-2-(2-pentyn-1-yl)-2H-tetrazole] |  | ≥ 50 |  | ≥ 80 |  | mortality at 2 ppm [2]: ≥ 80%; mortality at 50 ppm [4]: ≥ 80%
4 | CCC#CCn1ncc(-c2ccc(C(F)(F)F)cc2)n1 [Compound 103, 2-(2-Pentyn-1-yl)-4-[4-(trifluoromethyl)phenyl]-2H-1,2,3-triazole] | ≥ 80 | ≥ 50 | ≥ 80 | ≥ 80 |  | mortality at 250 ppm [6]: ≥ 80%
5 | CC(C)C#CCn1ncc(-c2ccc(C(F)(F)F)cc2)n1 [Compound 139] |  |  |  |  | ≥ 80 | mortality at 250 ppm [2]: ≥ 80%; mortality at 250 ppm [6]: ≥ 80%
6 | CCC#CCn1ncc(-c2cncc(F)c2)n1 [Compound 155] | ≥ 80 |  | ≥ 80 | ≥ 80 |  | mortality at 250 ppm [6]: ≥ 80%
7 | CCC#CCn1ncc(-c2ccc(Cl)nc2)n1 [Compound 157] | ≥ 80 | ≥ 50 | ≥ 80 | ≥ 80 |  | 
8 | CCC#CCn1cc(-c2ccc(F)nc2)nn1 [Compound 158] |  |  |  |  |  | mortality at 250 ppm [2]: ≥ 80%; mortality at 50 ppm ([6]; sprayed at 50 ppm): ≥ 80%
9 | CCC#CCn1ncc(-c2ccc(F)nc2)n1 [Compound 159, 2-Fluoro-5-[2-(2-pentyn-1-yl)-2H-1,2,3-triazol-4-yl]pyridine] | ≥ 80 |  |  | ≥ 80 |  | mortality at 250 ppm [6]: ≥ 80%
10 | CCC#CCn1nnc(-c2ccc(Br)c(Cl)c2)n1 [Compound 164, 5-(4-Bromo-3-chlorophenyl)-2-(2-pentyn-1-yl)-2H-tetrazole] | ≥ 80 |  | ≥ 80 |  | ≥ 80 | mortality at 50 ppm [3]: ≥ 50%
11 | CCC#CCn1nnc(-c2ccc3occc3c2)n1 [Compound 193, 5-(5-Benzofuranyl)-2-(2-pentyn-1-yl)-2H-tetrazole] | ≥ 80 | ≥ 50 | ≥ 80 | ≥ 80 |  | 
12 | CCC#CCn1nnc(-n2cc(Cl)cn2)n1 [Compound 306] | ≥ 80 | ≥ 50 | ≥ 80 |  | ≥ 80 | 
13 | CCC#CCn1nnc(-c2ccc(Cl)c(F)c2)n1 [Compound 308, 5-(4-Chloro-3-fluorophenyl)-2-(2-pentyn-1-yl)-2H-tetrazole] |  |  |  |  | ≥ 80 | mortality at 10 ppm ([2]; sprayed at 10 ppm): ≥ 80%; mortality at 50 ppm [3]: ≥ 50%; mortality at 50 ppm [4]: ≥ 80%
14 | CCC#CCn1nnc(-c2cc(F)c(F)c(F)c2)n1 [Compound 313, 2-(2-Pentyn-1-yl)-5-(3,4,5-trifluorophenyl)-2H-tetrazole] |  | ≥ 50 |  |  |  | mortality at 2 ppm [2]: ≥ 80%; mortality at 50 ppm [4]: ≥ 80%; mortality at 10 ppm [5]: ≥ 80%
15 | CCC#CCn1nnc(-c2ccc(C(F)(F)F)c(Br)c2)n1 [Compound 325, 5-[3-Bromo-4-(trifluoromethyl)phenyl]-2-(2-pentyn-1-yl)-2H-tetrazole] | ≥ 80 |  |  |  | ≥ 80 | mortality at 50 ppm [3]: ≥ 50%; mortality at 50 ppm [4]: ≥ 80%
